Measured values published in PubChem BioAssay (NCI).
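GI50: concentration for 50% inhibition of growth. At the TGI there is no net growth.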

Tests used:
Test in all cases: DTP human tumour cell line panel, 384-well format
[1] = system: 786-0 renal
[2] = system: A498 renal
[3] = system: A549 NSCLC
[4] = system: ACHN renal
[5] = system: BT-549 breast
[6] = system: CAKI-1 renal
[7] = system: CCRF-CEM leukemia
[8] = system: COLO 205 colon
[9] = system: DU-145 prostate
[10] = system: EKVX NSCLC
[11] = system: HCC-2998 colon
[12] = system: HCT-116 colon
[13] = system: HCT-15 colon
[14] = system: HL-60(TB) leukemia
[15] = system: HOP-62 NSCLC
[16] = system: HOP-92 NSCLC
[17] = system: HS 578T breast
[18] = system: HT29 colon
[19] = system: IGROV1 ovarian
[20] = system: K-562 leukemia
[21] = system: KM12 colon
[22] = system: LOX IMVI melanoma
[23] = system: M14 melanoma
[24] = system: MALME-3M melanoma
[25] = system: MCF7 breast
[26] = system: MDA-MB-231 breast
[27] = system: MDA-MB-435 melanoma
[28] = system: MDA-MB-468 breast
[29] = system: MOLT-4 leukemia
[30] = system: NCI-H226 lung
[31] = system: NCI-H23 lung
[32] = system: NCI-H322M lung
[33] = system: NCI-H460 NSCLC
[34] = system: NCI-H522 lung
[35] = system: NCI/ADR-RES ovarian
[36] = system: OVCAR-3 ovarian
[37] = system: OVCAR-4 ovarian
[38] = system: OVCAR-5 ovarian
[39] = system: OVCAR-8 ovarian
[40] = system: PC-3 prostate
[41] = system: RPMI-8226 leukemia
[42] = system: RXF 393 renal
[43] = system: SF-268 CNS
[44] = system: SF-295 CNS
[45] = system: SF-539 CNS
[46] = system: SK-MEL-28 melanoma
[47] = system: SK-MEL-5 melanoma
[48] = system: SK-OV-3 ovarian
[49] = system: SN12C renal
[50] = system: SNB-19 CNS
[51] = system: SNB-75 CNS
[52] = system: SR leukemia
[53] = system: SW-620 colon
[54] = system: T-47D breast
[55] = system: TK-10 renal
[56] = system: U251 glioblastoma
[57] = system: UACC-257 melanoma
[58] = system: UO-31 renal

Compound: COc1c/c(=C2/C=c3ccccc3=N2)[nH]/c1=C/c1[nH]c(C)cc1C
- GI50 [1]: 13.8 nM
- TGI [1]: 33.8 nM
- GI50 [2]: 81 nM
- TGI [2]: 1070 nM
- GI50 [3]: 120 nM
- TGI [3]: 385 nM
- GI50 [4]: 32.5 nM
- TGI [4]: 123 nM
- GI50 [5]: 15.6 nM
- TGI [5]: 58.2 nM
- GI50 [6]: 45.2 nM
- TGI [6]: 269 nM
- GI50 [7]: 16.4 nM
- TGI [7]: 32.8 nM
- GI50 [8]: 24.6 nM
- TGI [8]: 68.9 nM
- GI50 [9]: 33.8 nM
- TGI [9]: 1060 nM
- GI50 [10]: 24.5 nM
- TGI [10]: 81.2 nM
- GI50 [11]: 17.1 nM
- TGI [11]: 69 nM
- GI50 [12]: 17.2 nM
- TGI [12]: 33.1 nM
- GI50 [13]: 17.9 nM
- TGI [13]: 35.2 nM
- GI50 [14]: 17.3 nM
- TGI [14]: 31.6 nM
- GI50 [15]: 24.1 nM
- TGI [15]: 77.3 nM
- GI50 [16]: 23.9 nM
- TGI [16]: 67.1 nM
- GI50 [17]: 26.3 nM
- TGI [17]: 77.9 nM
- GI50 [18]: 21.9 nM
- TGI [18]: 54.8 nM
- GI50 [19]: 30.9 nM
- TGI [19]: 99.1 nM
- GI50 [20]: 62.9 nM
- TGI [20]: 244 nM
- GI50 [21]: 27.8 nM
- TGI [21]: 99.8 nM
- GI50 [22]: 17.7 nM
- TGI [22]: 32.4 nM
- GI50 [23]: 22.3 nM
- TGI [23]: 52.7 nM
- GI50 [24]: 27.2 nM
- TGI [24]: 64.3 nM
- GI50 [25]: 32 nM
- TGI [25]: 106 nM
- GI50 [26]: 19.3 nM
- TGI [26]: 52.7 nM
- GI50 [27]: 23.6 nM
- TGI [27]: 53.2 nM
- GI50 [28]: 197 nM
- TGI [28]: 587 nM
- GI50 [29]: 14.9 nM
- TGI [29]: 28.7 nM
- GI50 [30]: 15.3 nM
- TGI [30]: 32.3 nM
- GI50 [31]: 24.7 nM
- TGI [31]: 63 nM
- GI50 [32]: 56.4 nM
- TGI [32]: 1140 nM
- GI50 [33]: 19.5 nM
- TGI [33]: 41 nM
- GI50 [34]: 33.5 nM
- TGI [34]: 220 nM
- GI50 [35]: 20.5 nM
- TGI [35]: 40.5 nM
- GI50 [36]: 14.3 nM
- TGI [36]: 34.6 nM
- GI50 [37]: 24.2 nM
- TGI [37]: 158 nM
- GI50 [38]: 33 nM
- TGI [38]: 1230 nM
- GI50 [39]: 19.6 nM
- TGI [39]: 43.1 nM
- GI50 [40]: 17.8 nM
- TGI [40]: 76.8 nM
- GI50 [41]: 19.7 nM
- TGI [41]: 39.8 nM
- GI50 [42]: 14.2 nM
- TGI [42]: 51.6 nM
- GI50 [43]: 19.3 nM
- TGI [43]: 88.6 nM
- GI50 [44]: 35.1 nM
- TGI [44]: 155 nM
- GI50 [45]: 31.6 nM
- TGI [45]: 83.2 nM
- GI50 [46]: 24.4 nM
- TGI [46]: 61.8 nM
- GI50 [47]: 19.4 nM
- TGI [47]: 37.3 nM
- GI50 [48]: 52.3 nM
- TGI [48]: 293 nM
- GI50 [49]: 40.6 nM
- TGI [49]: 178 nM
- GI50 [50]: 54.5 nM
- TGI [50]: 1290 nM
- GI50 [51]: 32.8 nM
- TGI [51]: 85.2 nM
- GI50 [52]: 20.7 nM
- TGI [52]: 35.3 nM
- GI50 [53]: 22.2 nM
- TGI [53]: 47.2 nM
- GI50 [54]: 50.2 nM
- TGI [54]: 194 nM
- GI50 [55]: 25.2 nM
- TGI [55]: 65.5 nM
- GI50 [56]: 36.5 nM
- TGI [56]: 132 nM
- GI50 [57]: 24.7 nM
- TGI [57]: 53.7 nM
- GI50 [58]: 18.8 nM
- TGI [58]: 35.3 nM
